Results: US11051515B2, “3-acyl-benzamides and their use as herbicides” (Bayer Aktiengesellschaft, priority 2017, dated 2021)

How the values were obtained:
ABUTH [1] = assay: Pre-emergence action against ABUTH; assay type: in vivo, Abutilon theophrasti; conditions: Abutilon theophrasti, 504 h; pre-emergence, dosage 320 g/ha, scored visually after 3 weeks vs untreated controls; read-out: Pre-emergence action against ABUTH (herbicidal activity)
From the text: (§1) Seeds of monocotyledonous and dicotyledonous weed plants and crop plants are laid out in sandy loam soil in wood-fiber pots and covered with soil. The compounds of the invention, formulated in the form of wettable powders (WP) or as emulsion concentrates (EC), are then applied to the surface of the covering soil in the form of an aqueous suspension or emulsion at a water application rate equating to […], with addition of 0.2% wetting agent. After the treatment, the pots are placed in a greenhouse and kept under good growth conditions for the trial plants. The damage to the test plants is scored visually after a test period of 3 weeks by comparison with untreated controls (herbicidal activity in percent (%): 100% activity=the plants have died, 0% activity=like control plants).

MATIN [2] = assay: Post-emergence action against MATIN; assay type: in vivo, Matricaria inodora; conditions: Tripleurospermum inodorum, 504 h; post-emergence, dosage 80 g/ha, visual assessment about 3 weeks after treatment vs untreated controls; read-out: Post-emergence action against MATIN (herbicidal action in percent)
Experimental: (§2) Seeds of monocotyledonous and dicotyledonous weed and crop plants are laid out in sandy loam soil in wood-fiber pots, covered with soil and cultivated in a greenhouse under good growth conditions. 2 to 3 weeks after sowing, the test plants are treated at the one-leaf stage. The compounds of the invention, formulated in the form of wettable powders (WP) or as emulsion concentrates (EC), are then sprayed onto the green parts of the plants in the form of an aqueous suspension or emulsion at a water application rate equating to […], with addition of 0.2% wetting agent. After the test plants have been left to stand in the greenhouse under optimal growth conditions for about 3 weeks, the action of the preparations is assessed visually in comparison to untreated controls (herbicidal action in percent (%): 100% activity=the plants have died, 0% activity=like control plants). […] At the same time, inventive compounds leave Gramineae crops such as barley, wheat, rye, millet/Sorghum, corn or rice virtually undamaged when applied post-emergence, even at high active ingredient dosages. In addition, some substances are also harmless to dicotyledonous crops such as soya, cotton, oilseed rape, sugar beet or potatoes. Some of the compounds according to the invention have high selectivity and are therefore suitable for controlling unwanted vegetation in agricultural crops by the post-emergence method. The data of Tables B18 to B34 below illustrate, in an exemplary manner, the […] herbicidal action of the compounds according to the invention, the herbicidal activity being stated in percent.

SETVI [3] = assay: Post-emergence action against SETVI; assay type: in vivo, Setaria viridis; conditions: Setaria viridis, 504 h; post-emergence, dosage 80 g/ha, visual assessment about 3 weeks after treatment vs untreated controls; read-out: Post-emergence action against SETVI (herbicidal action in percent)
Experimental: as §2

AMARE [4] = assay: Pre-emergence action against AMARE; assay type: in vivo, Amaranthus retroflexus; conditions: Amaranthus retroflexus, 504 h; pre-emergence, dosage 320 g/ha, scored visually after 3 weeks vs untreated controls; read-out: Pre-emergence action against AMARE (herbicidal activity)
From the text: as §1

VERPE [5] = assay: Post-emergence action against VERPE; assay type: in vivo, Veronica persica; conditions: Veronica persica, 504 h, dosage 80 g/ha
Experimental: as §2

ECHCG [6] = assay: Pre-emergence action against ECHCG; assay type: in vivo, Echinochloa crus-galli; conditions: Echinochloa crus-galli, 504 h; pre-emergence, dosage 320 g/ha, scored visually after 3 weeks vs untreated controls; read-out: Pre-emergence action against ECHCG (herbicidal activity)
From the text: as §1

VERPE [7] = assay: Pre-emergence action against VERPE; assay type: in vivo, Veronica persica; conditions: Veronica persica, 504 h; Dosage 320 g/ha, pre-emergence
From the text: as §1

CYPES = assay: Post-emergence action against CYPES; assay type: in vivo, Cyperus esculentus; conditions: Cyperus esculentus, 504 h; post-emergence, dosage 80 g/ha, visual assessment about 3 weeks after treatment vs untreated controls; read-out: Post-emergence action against CYPES (herbicidal action in percent)
Experimental: as §2

ABUTH [8] = assay: Post-emergence action against ABUTH; assay type: in vivo, Abutilon theophrasti; conditions: Abutilon theophrasti, 504 h; post-emergence, dosage 80 g/ha, visual assessment about 3 weeks after treatment vs untreated controls; read-out: Post-emergence action against ABUTH (herbicidal action in percent)
Experimental: as §2

AMARE [9] = assay: Post-emergence action against AMARE; assay type: in vivo, Amaranthus retroflexus; conditions: Amaranthus retroflexus, 504 h; post-emergence, dosage 80 g/ha, visual assessment about 3 weeks after treatment vs untreated controls; read-out: Post-emergence action against AMARE (herbicidal action in percent)
Experimental: as §2

ECHCG [10] = assay: Post-emergence action against ECHCG; assay type: in vivo, Echinochloa crus-galli; conditions: Echinochloa crus-galli, 504 h; post-emergence, dosage 80 g/ha, visual assessment about 3 weeks after treatment vs untreated controls; read-out: Post-emergence action against ECHCG (herbicidal action in percent)
Experimental: as §2

STEME [11] = assay: Pre-emergence action against STEME; assay type: in vivo, Stellaria media; conditions: Stellaria media, 504 h; Dosage 320 g/ha, pre-emergence
From the text: as §1

STEME [12] = assay: Post-emergence action against STEME; assay type: in vivo, Stellaria media; conditions: Stellaria media, 504 h; post-emergence, dosage 80 g/ha
Experimental: as §2

VIOTR [13] = assay: Post-emergence action against VIOTR; assay type: in vivo, Viola tricolor; conditions: Viola tricolor, 504 h; post-emergence, dosage 80 g/ha
Experimental: as §2

MATIN [14] = assay: Pre-emergence action against MATIN; assay type: in vivo, Matricaria inodora; conditions: Tripleurospermum inodorum, 504 h; Dosage 320 g/ha, pre-emergence
From the text: as §1

PHBPU = assay: Post-emergence action against PHBPU; assay type: in vivo, Pharbitis purpurea; conditions: Ipomoea purpurea, 504 h; post-emergence, dosage 80 g/ha
Experimental: as §2

SETVI [15] = assay: Pre-emergence action against SETVI; assay type: in vivo, Setaria viridis; conditions: Setaria viridis, 504 h; pre-emergence, dosage 320 g/ha, scored visually after 3 weeks vs untreated controls; read-out: SETVI (Table B8, pre-emergence herbicidal activity)
From the text: as §1

VIOTR [16] = assay: Pre-emergence action against VIOTR; assay type: in vivo, Viola tricolor; conditions: Viola tricolor, 504 h; Dosage 320 g/ha, pre-emergence
From the text: as §1

| Structure (SMILES) | pest or weed control at 320 g/ha (ABUTH [1]) | pest or weed control at 80 g/ha (MATIN [2]) | pest or weed control at 80 g/ha (SETVI [3]) | pest or weed control at 320 g/ha (AMARE [4]) | pest or weed control at 80 g/ha (VERPE [5]) | pest or weed control at 320 g/ha (ECHCG [6]) | pest or weed control at 320 g/ha (VERPE [7]) | pest or weed control at 80 g/ha (CYPES) | pest or weed control at 80 g/ha (ABUTH [8]) | pest or weed control at 80 g/ha (AMARE [9]) | pest or weed control at 80 g/ha (ECHCG [10]) | pest or weed control at 320 g/ha (STEME [11]) | pest or weed control at 80 g/ha (STEME [12]) | pest or weed control at 80 g/ha (VIOTR [13]) | pest or weed control at 320 g/ha (MATIN [14]) | pest or weed control at 80 g/ha (PHBPU) | pest or weed control at 320 g/ha (SETVI [15]) | pest or weed control at 320 g/ha (VIOTR [16]) |
| --- | --- | --- | --- | --- | --- | --- | --- | --- | --- | --- | --- | --- | --- | --- | --- | --- | --- | --- |
| CC(=O)c1c(C)ccc(C(=O)Nc2nnnn2C)c1Cl [1-134] | 90% | 100% | 80% | 100% | 100% | 90% | 90% | 90% | 80% | 90% | 90% | 90% | 100% | 100% | 100% | 90% |  |  |
| Cc1ccc(C(=O)Nc2nnnn2C)c(Cl)c1C(=O)C1CC1 [1-136] |  | 90% |  | 80% | 90% |  | 80% | 80% |  | 90% |  | 100% | 100% | 90% | 100% | 90% |  |  |
| Cn1nnnc1NC(=O)c1ccc(C(F)(F)F)c(C(=O)C(F)(F)F)c1Cl [1-162] | 100% |  | 80% | 90% |  | 100% | 80% | 80% | 100% | 100% | 90% | 100% | 100% | 100% | 80% | 100% | 100% | 100% |
